According to patent publication US11535939B2, “Surface treatment method for copper or copper alloy, surface treatment liquid for sterilizing copper or copper alloy, and sterilization method using copper or copper alloy treated by said method” (NATIONAL INSTITUTE FOR MATERIALS SCIENCE, priority 2017, dated 2022):

Tested on: Escherichia coli (E. coli)
Test: Simple test for antimicrobial activity using E. coli based on JIS Z2801 (0.9% NaCl, fluorescent dye viability)
Type: cell-based
Details: Example 5, FIG. 8, Cu sample piece, 5 minutes after seeding
Description: In this Example, effects of GSH, which is a biological reducing substance, on antimicrobial activity of copper and copper alloys were studied by a simple test for antimicrobial activity using E. coli based on the test for antimicrobial activity specified in JIS Z2801. As shown in FIG. 6(a), first, a copper (Cu) sample piece (15 mm square) was placed on the bottom surface of a glass container. Next, on the upper surface of the sample piece, 0.9% NaCl (−GSH) not containing GSH as a solvent or a 0.9% NaCl solution (+GSH) containing GSH at a concentration of 1.0 mM as a solvent was used to seed about 1.0×10^6 cells/50 μL of E. coli. This bacterial suspension was covered with a polyethylene (PE) sheet so as not to dry the bacterial suspension. Then, the glass container was placed under static culture condition of 35±1° C. The PE sheet was removed 0 minute (immediately after seeding), 5 minutes, and 10 minutes after seeding of E. coli, and 1 mL of 0.9% NaCl+0.1 mM EDTA-2Na was added to the bacterial suspension, and the bacterial suspension was collected by pipetting. A fluorescent dye was added to the collected bacterial suspension, and viability of E. coli was determined by measuring fluorescence intensity. In order to avoid a contact between the back surface of the Cu sample piece and the solution when collecting E. coli, the back surface of the Cu sample piece was coated with a thin silicone sheet in advance. […] GSH was added at a concentration of 0 mM (no addition), 1.0 mM, 2.0 mM, and 10.0 mM, and the results are shown in this order from the left. In FIG. 8, the longitudinal axis represents a ratio of bacterial viability (relative viability) normalized to the bacterial viability in the control test as 1. […] Note that the time from seeding of E. coli to collection of a bacterial suspension was set to 5 minutes.

SMILES: N[C@@H](CCC(=O)N[C@@H](CS)C(=O)NCC(=O)O)C(=O)O [GSH, Reduced glutathione]
- bacterial viability (relative viability) (GSH 1.0 mM): decreased more than a case without GSH
- bacterial viability (relative viability) (GSH 2.0 mM): equivalent or greater than the result without GSH
- bacterial viability (relative viability) (GSH 10.0 mM): equivalent or greater than the result without GSH
